Data published in PubChem BioAssay (NCI).
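Five concentrations, 48 hours, 96-well plates. TGI is the concentration that stops growth completely.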

Assays:
Test in all cases: inhibition of tumour cell growth, NCI panel, 48 h
K-562 leukemia = tested on: K-562 leukemia
ACHN renal = tested on: ACHN renal
T-47D breast = tested on: T-47D breast
OVCAR-3 ovarian = tested on: OVCAR-3 ovarian
MDA-MB-231 breast = tested on: MDA-MB-231 breast
COLO 205 colon = tested on: COLO 205 colon
HCC-2998 colon = tested on: HCC-2998 colon
786-0 renal = tested on: 786-0 renal
RPMI-8226 leukemia = tested on: RPMI-8226 leukemia
EKVX NSCLC = tested on: EKVX NSCLC
CCRF-CEM leukemia = tested on: CCRF-CEM leukemia
RXF 393 renal = tested on: RXF 393 renal
NCI-H460 lung = tested on: NCI-H460 lung
OVCAR-5 ovarian = tested on: OVCAR-5 ovarian
PC-3 prostate = tested on: PC-3 prostate
NCI/ADR-RES ovarian = tested on: NCI/ADR-RES ovarian
SNB-19 CNS = tested on: SNB-19 CNS
HOP-62 NSCLC = tested on: HOP-62 NSCLC
A549 NSCLC = tested on: A549 NSCLC
SW-620 colon = tested on: SW-620 colon
SK-OV-3 ovarian = tested on: SK-OV-3 ovarian
HCT-15 colon = tested on: HCT-15 colon
HS 578T breast = tested on: HS 578T breast
TK-10 renal = tested on: TK-10 renal
NCI-H522 lung = tested on: NCI-H522 lung
MOLT-4 leukemia = tested on: MOLT-4 leukemia
HOP-92 NSCLC = tested on: HOP-92 NSCLC
OVCAR-4 ovarian = tested on: OVCAR-4 ovarian
MDA-N = tested on: MDA-N
SF-539 CNS = tested on: SF-539 CNS
IGROV1 ovarian = tested on: IGROV1 ovarian
MALME-3M melanoma = tested on: MALME-3M melanoma
LOX IMVI melanoma = tested on: LOX IMVI melanoma
SK-MEL-2 melanoma = tested on: SK-MEL-2 melanoma
SN12C renal = tested on: SN12C renal
SF-268 CNS = tested on: SF-268 CNS
UACC-257 melanoma = tested on: UACC-257 melanoma
UO-31 renal = tested on: UO-31 renal
SF-295 CNS = tested on: SF-295 CNS
DU-145 prostate = tested on: DU-145 prostate
OVCAR-8 ovarian = tested on: OVCAR-8 ovarian
NCI-H23 lung = tested on: NCI-H23 lung
HCT-116 colon = tested on: HCT-116 colon
HL-60(TB) leukemia = tested on: HL-60(TB) leukemia
MDA-MB-435 = tested on: MDA-MB-435
MCF7 breast = tested on: MCF7 breast
SNB-75 CNS = tested on: SNB-75 CNS
KM12 colon = tested on: KM12 colon
SK-MEL-5 melanoma = tested on: SK-MEL-5 melanoma
UACC-62 melanoma = tested on: UACC-62 melanoma
U251 CNS = tested on: U251 CNS
HT29 colon = tested on: HT29 colon
NCI-H226 lung = tested on: NCI-H226 lung
CAKI-1 renal = tested on: CAKI-1 renal
BT-549 breast = tested on: BT-549 breast
M14 melanoma = tested on: M14 melanoma
SR leukemia = tested on: SR leukemia

Cc1cc(C)nc(NS(=O)(=O)c2ccc(NNc3c4ccccc4nc4c(C(=O)Nc5ccc(S(=O)(=O)Nc6cc(C)on6)cc5)cccc34)cc2)n1 showed a TGI (K-562 leukemia) of 87.2 µM, a TGI (ACHN renal) greater than 100 µM and a TGI (T-47D breast) greater than 100 µM. It also gave a TGI (OVCAR-3 ovarian) of 47.2 µM, a TGI (MDA-MB-231 breast) of 94.4 µM and a TGI (COLO 205 colon) greater than 100 µM. It also gave a TGI (HCC-2998 colon) of 50.2 µM, a TGI (786-0 renal) greater than 100 µM and a TGI (RPMI-8226 leukemia) greater than 100 µM. The TGI (EKVX NSCLC) was 65.7 µM, the TGI (CCRF-CEM leukemia) was 63.5 µM and the TGI (RXF 393 renal) was greater than 100 µM. The TGI (NCI-H460 lung) was greater than 100 µM, the TGI (OVCAR-5 ovarian) was greater than 100 µM and the TGI (PC-3 prostate) was greater than 100 µM. The TGI (NCI/ADR-RES ovarian) was greater than 100 µM, the TGI (SNB-19 CNS) was greater than 100 µM and the TGI (HOP-62 NSCLC) was greater than 100 µM. The TGI (A549 NSCLC) was greater than 100 µM, the TGI (SW-620 colon) was greater than 100 µM and the TGI (SK-OV-3 ovarian) was greater than 100 µM. It also gave a TGI (HCT-15 colon) greater than 100 µM, a TGI (HS 578T breast) greater than 100 µM and a TGI (TK-10 renal) greater than 100 µM. The TGI (NCI-H522 lung) was 82.1 µM, the TGI (MOLT-4 leukemia) was 82.2 µM and the TGI (HOP-92 NSCLC) was greater than 100 µM. For the same compound, the TGI (OVCAR-4 ovarian) was greater than 100 µM, the TGI (MDA-N) was greater than 100 µM and the TGI (SF-539 CNS) was greater than 100 µM. For the same compound, the TGI (IGROV1 ovarian) was greater than 100 µM, the TGI (MALME-3M melanoma) was greater than 100 µM and the TGI (LOX IMVI melanoma) was 88.8 µM. It also gave a TGI (SK-MEL-2 melanoma) of 62.5 µM, a TGI (SN12C renal) greater than 100 µM and a TGI (SF-268 CNS) of 81.3 µM. It also gave a TGI (UACC-257 melanoma) greater than 100 µM, a TGI (UO-31 renal) greater than 100 µM and a TGI (SF-295 CNS) greater than 100 µM. It also gave a TGI (DU-145 prostate) greater than 100 µM, a TGI (OVCAR-8 ovarian) greater than 100 µM and a TGI (NCI-H23 lung) greater than 100 µM. The TGI (HCT-116 colon) was greater than 100 µM, the TGI (HL-60(TB) leukemia) was 80.6 µM and the TGI (MDA-MB-435) was greater than 100 µM. For the same compound, the TGI (MCF7 breast) was greater than 100 µM, the TGI (SNB-75 CNS) was 86 µM and the TGI (KM12 colon) was greater than 100 µM. The TGI (SK-MEL-5 melanoma) was greater than 100 µM, the TGI (UACC-62 melanoma) was greater than 100 µM and the TGI (U251 CNS) was 79.2 µM. For the same compound, the TGI (HT29 colon) was 49.1 µM, the TGI (NCI-H226 lung) was 63.8 µM and the TGI (CAKI-1 renal) was greater than 100 µM. For the same compound, the TGI (BT-549 breast) was greater than 100 µM, the TGI (M14 melanoma) was greater than 100 µM and the TGI (SR leukemia) was 72.8 µM.
